According to patent US6861524B2, “Acyl and sulfonyl derivatives of 6,9-disubstituted 2-(trans-1,4-diaminocyclohexyl)-purines and their use as antiproliferative agents” (Aventis Pharmaceuticals Inc., priority 2000, dated 2005):
pIC50: −log10 of the molar value. Read-outs that look alike come from different tables or passages of the source.

How the values were obtained:
[1] = target: cdk4/cyclin D1 (Homo sapiens, UniProt P11802); assay: Cyclin-dependent kinase assay, cdk4/cyclin D1 (GST-pRb substrate); assay type: biochemical
[2] = test system: MDA-MB-435; assay: In vitro proliferation assay (MTT), MDA-MB-435; assay type: cell-based, human; conditions: mean (SD, n) where given, read-out: MB-435 Breast (IC50 μM)
Protocol: (§1) The proliferation of tumor cells can be measured using a tetrazolium salt-based assay known as the MTT (3-[4,5-Dimethylthiazol-2-yl]-2,5-diphenyltetrazolium bromide) assay. […] For the assay, the cell lines are plated onto 96 well plates at 1000 to 2500 cells/well (depending on the properties of the individual cell lines), left to attach and recover overnight. […] After 3 days, the cells are incubated with MTT dye (3-[4,5-Dimethylthiazol-2-yl]-2,5-diphenyltetrazolium bromide, Sigma #M5655, 10 mg/ml in Hank's Buffered Saline) to estimate the amount of live cells remaining vs. concentration for the test compounds. […] The MTT and culture medium is then removed from the cultures and 200 μl of DMSO is added to solubilize the dye from the cell layer. The absorbance at 570 nm is determined for each culture using a Spectramax plate reader (Molecular Devices).
(§2) IC50s were determined from the raw data from either the MTT or SRB assays.
(§3) All of the cell lines were obtained from American Type Tissue Collection, with the ATCC accession number in parentheticals. MCF-7 and MDA-MB-231 cells were grown in improved minimum essential medium (Biofluids) without phenol red, supplemented with 5% fetal bovine serum, 0.01 mg/ml gentamicin and 3 mM L-glutamine.

[3] = test system: HL-60; assay: In vitro proliferation assay (MTT), HL-60; assay type: cell-based, human; conditions: read-out: HL-60 Leuk. (IC50 μM)
Protocol: (§4) The proliferation of tumor cells can be measured using a tetrazolium salt-based assay known as the MTT (3-[4,5-Dimethylthiazol-2-yl]-2,5-diphenyltetrazolium bromide) assay. The proliferation test is performed essentially as described by Carmichael et al., Cancer Res. 47: 936-942, 1987. For the assay, the cell lines are plated onto 96 well plates at 1000 to 2500 cells/well (depending on the properties of the individual cell lines), left to attach and recover overnight. […] After 3 days, the cells are incubated with MTT dye (3-[4,5-Dimethylthiazol-2-yl]-2,5-diphenyltetrazolium bromide, Sigma #M5655, 10 mg/ml in Hank's Buffered Saline) to estimate the amount of live cells remaining vs. concentration for the test compounds. Specifically, MTT solution is added to a final concentration of […] and the plates incubated at 37 C for 2 to 4 hr. The MTT and culture medium is then removed from the cultures and 200 μl of DMSO is added to solubilize the dye from the cell layer. The absorbance at 570 nm is determined for each culture using a Spectramax plate reader (Molecular Devices).
as §2
(§5) All of the cell lines were obtained from American Type Tissue Collection, with the ATCC accession number in parentheticals. […]

[4] = test system: Jurkat; assay: In vitro proliferation assay (MTT), Jurkat; assay type: cell-based, human; conditions: read-out: Jurkat Leuk. (IC50 μM)
Protocol: as §4, §2, §5

[5] = test system: PC-3; assay: In vitro proliferation assay (MTT), PC-3; assay type: cell-based, human; conditions: MTT assay; mean (SD, n) where given; read-out: PC-3 Prostate (IC50 μM)
Protocol: as §1, §2, §3

[6] = test system: PC-3 human prostate tumors; assay: PC-3 human prostate tumor xenograft in nude mice; assay type: in vivo; conditions: Table 5, control 1308 ± 852
Protocol: (§6) Antitumor efficacy is assessed using two subcutaneous human tumor xenograft models. The studies are performed using conventional assay techniques. Briefly, HL-60 (leukemia, 5×10^5 cells) and PC-3 (prostate, 5×10^6 cells) tumor cells are injected subcutaneously into nude mice (Cr1-CD1-Br-nu, Charles River Laboratory, Wilmington, Mass.). Dosing with compounds began when tumors reached 50 to 100 mm^3. The dose route/schedule for the test compounds is ip/q1d (5×/wk). The test doses are set based on the maximum tolerated dose (MTD). […] The test doses for the efficacy studies are set at ⅓rd the MTD (low dose) and the MTD (high dose). The results are shown in Tables 4 and 5 (HL-60, leukemia) (PC-3, prostate cancer). The length of the treatment phase is dependent on the tumor growth rate for the two models. This treatment phase is typically about 3 weeks for the HL-60 model and about 5 weeks for the PC-3 model. […] Dosing with flavopiridol is for the same time frame as for the experimental compounds in both xenograft models. Tumor volume (twice weekly) and body weights (once weekly) are monitored throughout the course of the treatment phase of the experiment. Tumor sizes are measured by external caliper measurements of protruding tumor. Volumes are calculated using the following formula: volume=½ (a×b2), where b is the smaller of two perpendicular diameters.

[7] = test system: HL-60 human leukemia; assay: HL-60 human leukemia xenograft in nude mice; assay type: in vivo; conditions: Table 5, control 8341 ± 5355
Protocol: as §6

[8] = target: cdk2/cyclin E (Homo sapiens, UniProt P24941); assay: Cyclin-dependent kinase assay, cdk2/cyclin E (GST-pRb substrate); conditions: read-out: CDK2 IC50; inhibition of cyclin E/CDK 2 enzyme activity
Protocol: (§7) The IC50 values for cdk1/cyclin B, cdk2/cyclin E, and cdk4/cyclin D1 inhibition are determined using the following methods:
The cdk2 sequence (accession number X62071) is amplified by PCR and cloned into the SpeI and XhoI sites of pFASTBAC1 (Life Technologies). […] This primer would anneal in the 3′ untranslated sequence.
The cyclin E sequence (accession number M73812) is amplified by PCR and cloned into the XbaI and XhoI sites of pFASTBAC1 (Life Technologies).
(§8) The cDNA for each of the cyclin-dependent kinases (CDK) and the corresponding cyclins are cloned into the baculovirus expression vector, pFASTBAC1 (Life Technologies). The sequences of each of the constructs are confirmed by automated fluorescent DNA sequencing according to the manufacture's protocol (Perkin Elmer/Applied Biosystems Inc).
(§9) The insect cell (Sf9) expression is optimized for each of the CDK/cyclin pairs according to the manufacturer's protocols (Life Technologies).
(§10) The viruses are added to the cells and the culture is incubated at 27° C. for the desired time. The cells are harvested by centrifugation at 3000 rpm for 10 minutes. The cells are snap frozen on dry ice and stored at −80° C.
(§11) Cell extracts are made following a standard procedure. The cell pellet is resuspended in lysis buffer (50 mM HEPES, pH 8.0, 10 mM MgCl2, 1 mM DTT, 2.5 mM EGTA, 1 mM EDTA, 10 mM β-glycerophosphate, 1 mM sodium vanadate, 1 mM sodium fluoride, 1×Protease inhibitor cocktail). The cells are lysed using the microfluidizer (Microfluidics) for 20 minutes. Cell debris is removed by centrifugation at 100,000×g. The cell extracts are aliquoted in 1 ml aliquots, frozen on dry ice, and stored at −80° C.
The kinase reactions are performed following a standard procedure. […]
The transformed bacteria are grown overnight to saturation, then diluted in YT broth and incubated at 37° C. for 2 h. […] The beads are washed with kinase buffer and then quantitated of Coomassie blue-stained proteins separated by SDS-PAGE using a protein standard of known concentration.

[9] = target: cdk1/cyclin B (Homo sapiens, UniProt P06493); assay: Cyclin-dependent kinase assay, cdk1/cyclin B (Histone H1 substrate); conditions: read-out: CDK1 IC50; inhibition of cyclin B/CDK 1 enzyme activity
Protocol: as §7
The cdk1 sequence (accession number Y00272) is amplified by PCR and cloned into the BamHI and SalI sites of pFASTBAC1 (Life Technologies).
The cyclin B1 sequence (accession number M25753) is amplified by PCR and cloned into the BamHI and SalI sites of pFASTBAC1 (Life Technologies).
as §8, §9, §10, §11
The kinase reactions are performed following a standard procedure. The enzyme and inhibitor are diluted in kinase buffer (50 mM HEPES, pH 8.0, 10 mM MgCl2, 2.5 mM EGTA, 10 mM β-glycerophosphate, 1 mM sodium vanadate, 1 mM sodium fluoride, and 1 mM DTT) and pre-incubated for 30 minutes. […] The cdk1 enzyme activity is assayed using Histone H1 (Sigma) in the presence of 10 μM ATP for 30 min at room temperature. The reactions are terminated by the addition of 50 μL of 10 mM cold ATP to stop the reactions. The reactions are transferred to a pre-soaked 96-well multi-screen plate containing 30 μL of 100% TCA per well. After incubation for one hour at room temperature, the plates are washed twice with 200 μl of 20% TCA, followed by 200 μl of 10% TCA and finally with 200 μl of 5% TCA. After drying the plates at room temperature, the filter plates are placed in adapter plates (Packard) and 40 μl of Microscint-O® (Packard) is added to each well. Top Seal A film is used to cover the plates before counting in a Top Count Scintillation Counter.
The % remained activity of the indicated Cdk/cyclin kinase complex in the presence of inhibitor is calculated by the ratio of cpm in the presence of inhibitor to cpm in the absence of inhibitor (% Activity=vi/vo×100%).

[10] = test system: NCI-H460; assay: In vitro proliferation assay (MTT), NCI-H460; assay type: cell-based, human; conditions: read-out: H-460 Lung (IC50 μM)
Protocol: as §4, §2, §5

[11] = test system: Colo-205; assay: In vitro proliferation assay (MTT), Colo-205; assay type: cell-based; conditions: read-out: Colo-205 Colon (IC50 μM)
Protocol: as §4, §2

Chain of cdk1/cyclin B (P06493 whole entry): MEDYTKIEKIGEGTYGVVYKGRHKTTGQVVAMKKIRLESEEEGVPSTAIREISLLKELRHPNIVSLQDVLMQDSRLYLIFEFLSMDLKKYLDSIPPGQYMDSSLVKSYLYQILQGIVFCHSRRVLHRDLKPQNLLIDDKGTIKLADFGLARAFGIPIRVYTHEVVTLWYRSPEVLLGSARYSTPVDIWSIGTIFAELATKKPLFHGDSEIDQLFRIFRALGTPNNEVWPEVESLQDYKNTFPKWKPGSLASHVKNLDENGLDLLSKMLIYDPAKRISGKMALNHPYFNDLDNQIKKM
Chain of cdk1/cyclin B (P14635 whole entry partner): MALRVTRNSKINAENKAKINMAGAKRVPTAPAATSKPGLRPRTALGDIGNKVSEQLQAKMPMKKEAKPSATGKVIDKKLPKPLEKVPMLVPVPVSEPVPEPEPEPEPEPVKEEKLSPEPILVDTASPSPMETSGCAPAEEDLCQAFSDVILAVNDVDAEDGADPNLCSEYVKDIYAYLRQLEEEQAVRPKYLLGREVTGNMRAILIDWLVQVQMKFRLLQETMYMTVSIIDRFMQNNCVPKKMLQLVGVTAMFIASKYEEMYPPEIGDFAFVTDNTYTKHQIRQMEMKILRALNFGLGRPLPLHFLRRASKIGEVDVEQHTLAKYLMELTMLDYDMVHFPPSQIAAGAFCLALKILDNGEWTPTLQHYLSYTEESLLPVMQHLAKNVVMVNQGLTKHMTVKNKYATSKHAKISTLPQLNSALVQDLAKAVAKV
Chain of cdk4/cyclin D1 (P11802 whole entry): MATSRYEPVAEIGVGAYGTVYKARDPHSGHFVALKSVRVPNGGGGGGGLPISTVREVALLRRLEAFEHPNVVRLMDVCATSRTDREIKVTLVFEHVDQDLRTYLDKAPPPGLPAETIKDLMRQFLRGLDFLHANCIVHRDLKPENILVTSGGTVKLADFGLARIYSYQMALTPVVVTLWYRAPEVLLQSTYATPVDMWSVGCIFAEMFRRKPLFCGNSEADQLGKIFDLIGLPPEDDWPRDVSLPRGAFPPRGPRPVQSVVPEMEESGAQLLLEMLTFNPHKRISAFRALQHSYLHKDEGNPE
Chain of cdk4/cyclin D1 (P24385 whole entry partner): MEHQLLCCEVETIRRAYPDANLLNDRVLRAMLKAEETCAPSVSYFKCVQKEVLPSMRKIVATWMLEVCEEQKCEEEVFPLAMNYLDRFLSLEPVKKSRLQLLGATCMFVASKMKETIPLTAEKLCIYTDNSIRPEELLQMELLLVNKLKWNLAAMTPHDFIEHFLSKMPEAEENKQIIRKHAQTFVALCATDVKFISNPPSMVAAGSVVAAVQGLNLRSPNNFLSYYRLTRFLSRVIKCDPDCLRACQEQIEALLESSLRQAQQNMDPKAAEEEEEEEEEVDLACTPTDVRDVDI

“trans-1-{4-[2-(4-Amino-cyclohexylamino)-9-cyclopentyl-9H-purin-6-ylamino]-piperidin-1-yl}-1-(4-trifluoromethyl-phenyl)-methanone dihydrochloride [Compound 3]” was tested. Which pIC50 ([1]; inhibition of cyclin D1/CDK 4 enzyme activity) did it give?
Its pIC50 is 5.95.

What about the IC50 [2] of the same substance?
The IC50 was 0.25 µM.

What about the IC50 [3] of the same substance?
Its IC50 is 0.13 µM.

And the IC50 [4]?
Its IC50 is 0.22 µM.

What about the IC50 [5] of the same substance?
Its IC50 is 0.66 µM.

What about the “PC-3 Mean Vol. ± SD” value ([6]; 1 mg/kg ip q1d 5x/wk) of the same substance?
The value was 671 ± 672.

And the “PC-3 Mean Vol. ± SD” value ([6]; 3 mg/kg ip q1d 5x/wk)?
Its value is 785 ± 473.

What about the “HL60 Mean Vol. ± SD” value ([7]; 1 mg/kg ip q1d 5x/wk) of the same substance?
The value was 6370 ± 4655.

And the “HL60 Mean Vol. ± SD” value ([7]; 3 mg/kg ip q1d 5x/wk)?
Its value is 6092 ± 4278.

What about the pIC50 [8] of the same substance?
Its pIC50 is 7.32.

And the pIC50 [9]?
The pIC50 was 7.26.

How did the pIC50 [1] turn out when “trans-N^2-(4-Amino-cyclohexyl)-9-cyclohexyl-N^6-[1-(4-chloro-benzenesulfonyl)-piperidin-4-yl]-9H-purine-2,6-diamine dihydrochloride [Compound 108]” was run?
The pIC50 was 6.77.

And the IC50 [2]?
The IC50 was 0.14 µM.

What about the IC50 [10] of the same substance?
Its IC50 is 0.29 µM.

And the IC50 [5]?
The IC50 was 0.43 µM.

What about the IC50 [11] of the same substance?
Its IC50 is 0.18 µM.

And the pIC50 [8]?
Its pIC50 is 8.00.

What about the pIC50 [9] of the same substance?
Its pIC50 is 8.15.
